Measured values taken from patent publication US20120309717A1, “COMPOUNDS, METHODS AND PHARMACEUTICAL COMPOSITIONS FOR INHIBITING PARP” (EISAI INC., priority 2003, published 2012).

Legend:
[1] = tested on: ischemia and reperfusion of the heart; conditions: cited from earlier work
[2] = tested on: human fibroblast cells lines (W138 or BJ cells); experiment: proliferative capacity and lifespan of human fibroblast cells; assay type: cell-based
Experimental: At the time of subdivision, the media is aspirated, and the cells rinsed with phosphate buffer saline (PBS) and then trypsinized. The cells are counted with a Coulter counter and plated at a density of 10^5 cells per cm^2 in 6-well tissue culture plates in DMEM/199 medium supplemented with 10% bovine calf serum and varying amounts (0.10 μM, and 1 mM: from a 100× stock solution in DMEM/M199 medium) of a PARP inhibitor. This process is repeated every 7 days until the cells appear to stop dividing. The untreated (control) cells reach senescence and stop dividing after about 40 days in culture. […] The cells treated with 1 mM 3-AB will still divide after 60 days in culture.

colitis = conditions: rats; cited from earlier work
[3] = target: T1, purified recombinant human PARP (Homo sapiens, UniProt P09874); experiment: PARP enzyme assay (IC50); assay type: biochemical; conditions: Table II; approximate values
T1 construct: purchased Trevigan (Gaithersburg, Md.)
T1 sequence (P09874 whole entry): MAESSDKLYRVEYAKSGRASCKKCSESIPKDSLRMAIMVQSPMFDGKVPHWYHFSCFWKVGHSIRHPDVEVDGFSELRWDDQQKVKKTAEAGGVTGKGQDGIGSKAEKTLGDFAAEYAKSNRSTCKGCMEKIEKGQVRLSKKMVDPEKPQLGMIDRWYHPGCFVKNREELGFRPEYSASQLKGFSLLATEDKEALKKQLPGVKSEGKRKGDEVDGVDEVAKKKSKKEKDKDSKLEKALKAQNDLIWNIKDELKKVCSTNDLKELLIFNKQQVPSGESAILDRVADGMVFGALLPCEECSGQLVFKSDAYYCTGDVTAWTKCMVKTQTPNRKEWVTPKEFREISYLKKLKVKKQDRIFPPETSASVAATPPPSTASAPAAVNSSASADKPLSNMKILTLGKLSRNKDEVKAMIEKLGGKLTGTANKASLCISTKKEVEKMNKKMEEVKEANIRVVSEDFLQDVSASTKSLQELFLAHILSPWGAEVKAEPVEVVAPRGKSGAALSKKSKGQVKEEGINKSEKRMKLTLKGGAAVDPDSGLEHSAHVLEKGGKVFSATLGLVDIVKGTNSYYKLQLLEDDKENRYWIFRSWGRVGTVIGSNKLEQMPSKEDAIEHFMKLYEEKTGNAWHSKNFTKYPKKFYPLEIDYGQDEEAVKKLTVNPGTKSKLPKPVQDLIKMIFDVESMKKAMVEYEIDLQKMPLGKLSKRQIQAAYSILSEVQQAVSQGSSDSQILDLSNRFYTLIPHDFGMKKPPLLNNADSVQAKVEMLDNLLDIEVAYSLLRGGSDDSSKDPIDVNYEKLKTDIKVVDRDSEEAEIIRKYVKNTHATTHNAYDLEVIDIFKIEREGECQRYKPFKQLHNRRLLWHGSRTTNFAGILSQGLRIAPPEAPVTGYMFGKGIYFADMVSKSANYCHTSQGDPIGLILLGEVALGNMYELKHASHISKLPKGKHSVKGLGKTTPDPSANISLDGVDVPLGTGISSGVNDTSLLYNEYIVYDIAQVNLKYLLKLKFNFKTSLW
Experimental: A convenient method to determine IC50 of a PARP inhibitor compound is a PARP assay using purified recombinant human PARP from Trevigan (Gaithersburg, Md.), as follows: The PARP enzyme assay is set up on ice in a volume of 100 microliters consisting of 100 mM Tris-HCl (pH 8.0), 1 mM MgCl2, 28 mM KCl, 28 mM NaCl, 0.1 mg/ml of DNase I activated herring sperm DNA (Sigma, Mo.), 3.0 micromolar [3H]nicotinamide adenine dinucleotide (470 mci/mmole), 7 micrograms/ml PARP enzyme, and various concentrations of the compounds to be tested. The reaction is initiated by incubating the mixture at 25° C. After 15 minutes of incubation, the reaction is terminated by adding 500 microliters of ice cold 20% (w/v) trichloroacetic acid. The precipitate formed is transferred onto a glass fiber filter (Packard Unifilter-GF/B) and washed three times with ethanol. After the filter is dried, the radioactivity is determined by scintillation counting.

P388D1 cells = experiment: H2O2 induced cell death assay (cytoprotective effect, LDH release); assay type: cell-based, murine; conditions: Mus musculus, Table II, approximate values, concentration for 50% reduction of cell death, 2 mM H2O2, 4 h
Experimental: We used a H2O2 induced cell death assay to determine the cytoprotective effect of PARP inhibitors. P388D1 cells (CCL-46, ATCC), derived from a murine macrophage-like tumor, were maintained in Dulbeco's Modified Eagle Medium (DMEM) with 10% horse serum and 2 mM L-glutamine. The cytotoxicity assay was set up in a 96-well plate. In each well, 190 ul cells were seeded at 2×10^6/ml density. To determine the EC50, the concentration of a compound required to achieve 50% reduction of cell death, a dose response experiment was conducted. PARP inhibitors were added to the media to a final concentration of 0.01, 0.03, 0.1, 0.3, 1, 3, 10, 30 uM. After 15 min incubation with a PARP inhibitor, 5 ul of freshly prepared H2O2 were added to the cells to a final concentration of 2 mM. Cells were returned to 37° C. incubator for 4 h. At the end of incubation, 25 ul of supernatant were sampled from the cell media to determine the level of lactate dehydrogenase (LDH) released from dead cells. The LDH activity was determined by monitoring the rate of decrease of NADH absorbency at 340 nm. The group without drug treatment was used to calculate total cell death due to H2O2 treatment. Each data point was an average of quadruplicate. The EC50 was determined from a dose response curve.

endotoxic shock = conditions: cited from earlier work

Structure (SMILES)	IC50 [3] [µM]	EC50 (P388D1 cells) [µM]	melting point [°C]	further results
Oc1cccc2c(O)nccc12 [1,5-dihydroxyisoquinoline]	–	–	–	reduction in infarct size ([1]; 1 mg/kg): 38-48%
NC(=O)c1cccc(N)c1 [3-amino-benzamide]	–	–	–	effect on lifespan of the cells ([2]; 10 μM): little or no effect; effect on lifespan of the cells ([2]; 100 μM): lengthen the lifespan of the cells; effect on lifespan and proliferative capacity of the cells ([2]; 1 mM): dramatically increases the lifespan and proliferative capacity; time in culture at which cells still divide ([2]; 1 mM, untreated cells stop after about 40 days): > 60 days; reduction in infarct size in the heart ([1]; single injection 10 mg/kg, one minute before occlusion or before reperfusion): 32-42%; inflammatory response, distal colon (colitis): reduced the inflammatory response
CN(C)CCN(C)Cc1ccc2c(c1)-c1n[nH]c(=O)c3cccc(c13)O2 [10-{[(2-Dimethylamino-ethyl)-methyl-amino]-methyl}-2H-7-oxa-1,2-diaza-benzo[de]anthracen-3-one]	0.1	0.17	–	–
O=c1[nH]nc2c3c(cccc13)Oc1ccc(CN(CCO)CCO)cc1-2 [Compound 47, 10-{[Bis-(2-hydroxy-ethyl)-amino]-methyl}-2H-7-oxa-1,2-diaza-benzo[de]anthracen-3-one]	–	–	222 to 225	–
O=c1[nH]nc2c3c(cccc13)Oc1ccc(CN3CCC(N4CCCC4)CC3)cc1-2 [Compound 48, 10-(4-Pyrrolidin-1-yl-piperidin-1-ylmethyl)-2H-7-oxa-1,2-diaza-benzo[de]anthracen-3-one]	–	–	258 to 264	–
O=C(O)C(O)C(O)C(=O)NCc1ccc2c(c1)-c1n[nH]c(=O)c3cccc(c13)O2 (stereo not shown) [Compound 52, 2,3-Dihydroxy-N-(3-oxo-2,3-dihydro-7-oxa-1,2-diaza-benzo[de]anthracen-10-ylmethyl)-succinamic acid]	–	–	181 to 185	–
CN(C)c1ccc(N=Nc2ccc(S(=O)(=O)NCc3ccc4c(c3)-c3n[nH]c(=O)c5cccc(c35)O4)cc2)cc1 [Compound 55, 4-(4-Dimethylamino-phenylazo)-N-(3-oxo-2,3-dihydro-7-oxa-1,2-diaza-benzo[de]anthracen-10-ylmethyl)-benzenesulfonamide]	–	–	> 300	–
CN(C)CC(=O)OCc1ccc2c(c1)-c1n[nH]c(=O)c3cccc(c13)O2 [Compound 59, Dimethylamino-acetic acid 3-oxo-2,3-dihydro-7-oxa-1,2-diaza-benzo[de]anthracen-10-ylmethyl ester]	–	–	227 to 230	–
O=c1[nH]nc2c3c(cccc13)Oc1ccc(COP(=O)(OCc3ccccc3)OCc3ccccc3)cc1-2 [Compound 60, Phosphoric acid dibenzyl ester 3-oxo-2,3-dihydro-7-oxa-1,2-diaza-benzo[de]anthracen-10-ylmethyl ester]	–	–	223 to 225	–
O=C(O)C(O)C(O)C(=O)NCc1ccc2c(c1)-c1n[nH]c(=O)c3cccc(c13)O2 (stereo not shown) [drawing 41]	0.021	5.27	–	–
CN1CCN(Cc2ccc3c(c2)-c2n[nH]c(=O)c4cccc(c24)O3)CC1 [drawing 46]	0.074	0.13	–	–
O=c1[nH]nc2c3c(cccc13)Oc1ccc(COP(=O)(OCc3ccccc3)OCc3ccccc3)cc1-2 [drawing 55]	0.086	0.52	–	–
NC(=O)c1cccnc1 [nicotinamide]	–	–	–	protection against vascular failure (endotoxic shock): protects against delayed, NO-mediated vascular failure
